These results are taken from US20040228866A1, “Suppressor genes” (Ludwig Institute for Cancer Research, priority 2000, published 2004).

This experiment relates to Saos-2 cells. The experiment is described as follows: Apoptosis by flow cytometry (CD20-gated, sub-G1 DNA content) in transfected Saos-2 cells. It counts as cell-based. The protocol:
Apoptosis was identified by the expression of the co-transfected cell surface marker CD20, as described in Samuels-Lev et al. (Mol. Cell 8:781-94, 2001, herein incorporated by reference).
The number of apoptotic cells was determined using the methods described in Example 6.
Cells (10^6) were plated 24-48 hours prior to transfection in 10 cm plates. Cells were grown in DMEM supplemented with 10% FCS and transfected with 2 μg of a plasmid expressing CD20 as a transfection marker. Increasing amounts of ASPP1 and ASPP2 were transfected (7.5 μg, 15 μg and 25 μg). 36 hours after the transfection, both attached and floating cells were harvested and analysed using flow cytometry as follows. The transfected cells were gated based on the expression of CD20. The percentage of apoptotic cells was measured by the accumulation of cells with a sub-G1 DNA content derived from at least three individual experiments.
The transfected cells were analyzed by flow cytometry as described in Example 6.
(Flow cytometry measures light scatter and fluorescence of single cells or particles in a stream.)

For Bcl-2: anti-apoptotic Bcl-2 oncoprotein, where the note is “co-expressed with p53”, the “effect on the apoptotic function of wild type p53” value is “decreased”. The “effect on the enhancement of p53 apoptotic function by ASPP1 and ASPP2” value (co-expressed with p53 and ASPP1 or ASPP2) was “effectively prevented ASPP1 and ASPP2 from enhancing the apoptotic function of p53”. Further, the “effect on apoptosis induced by p53H175-L” value (transcriptionally inactive, mitochondria-targeted mutant p53, FIG. 9A) is listed as “failed to decrease or inhibit apoptosis induced by p53H175-L”.
